The source of these data is PubChem BioAssay (NCI).

Holding throughout (assay): DTP human tumour cell line panel, 48 h
Assay [1] concerns 786-0 renal.
The subject of assay [2] is ACHN renal.
In assay [3] the test system is EKVX NSCLC.
Assay [4] deals with HOP-92 NSCLC.
Assay [5] deals with KM12 colon.
Assay [6] relates to OVCAR-8 ovarian.
For assay [7], the system named is SF-295 CNS.
Assay [8] concerns SK-MEL-5 melanoma.
Assay [9] relates to UACC-62 melanoma.
Assay [10] deals with HL-60(TB) leukemia.

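Following 48 hours of exposure in 96-well plates, responses at five concentrations were used to interpolate endpoints linearly. At the GI50, growth is halved. TGI: concentration producing complete growth inhibition.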

As a reminder, the GI50 is the concentration at which growth is held to half of that of the control. One may read the TGI as the concentration giving total growth inhibition. For the molecule `Cc1c(Sc2ccccc2)[n+](=O)c2cc(Cl)c(Cl)cc2n1[O-]`, the GI50 was 22 µM in assay [1]; 20.5 µM in [2]; greater than 100 µM in [3]; 20 µM in assay [4]; greater than 100 µM in [5]; 25.6 µM in [6]. Further, the GI50 in assay [7] is greater than 100 µM; in assay [8], 54.1 µM; in assay [9], greater than 100 µM. The TGI in assay [1] is 43.4 µM; in assay [2] it was 41.6 µM; in [3] it was greater than 100 µM; in assay [4], 51.4 µM; in [5] it was greater than 100 µM; in assay [6], greater than 100 µM. Further, the concentration for total growth inhibition (TGI) in assay [7], in assay [8] and in [9] was greater than 100 µM each time.
In the case of `COc1ccc2nc(NC(=O)C(=O)C(C#N)c3ccc(Cl)c(Cl)c3)sc2c1` (stereo not given), the concentration for total growth inhibition (TGI) in [1], in assay [2], in [3], in [10], in [4] and in assay [5] was greater than 100 µM throughout. In addition, the concentration for total growth inhibition (TGI) in assay [6], in assay [7], in assay [8] and in [9] was greater than 100 µM in each case.
Take `O=C(O)CCSC(=O)Nc1ccc(N=Nc2ccccc2)cc1`: the TGI in [1], in [2], in [3], in [10], in assay [4] and in [5] was greater than 100 µM throughout. In addition, the TGI in [6], in [7], in assay [8] and in assay [9] was greater than 100 µM throughout.
On to `COc1cc2c3c(n(CCCN=[N+]=[N-])c(=O)c2cc1OC)-c1ccc(N(C)C)cc1C3=O`, for which the GI50 in assay [1], in assay [2], in assay [3], in [10], in assay [4] and in assay [5] was greater than 100 µM in each case. In addition, the GI50 in assay [6] is greater than 100 µM; in assay [7] it was greater than 100 µM; in [8], 87.1 µM; in [9], greater than 100 µM. The TGI in assay [1], in assay [2], in assay [3], in assay [10], in [4] and in [5] was greater than 100 µM each time. Besides, the total growth inhibition concentration (TGI) in assay [6], in [7], in assay [8] and in [9] was greater than 100 µM throughout.
As for `CC12Oc3ccc4ccccc4c3CC1Cc1c(ccc3ccccc13)O2` (stereo not given), the concentration for total growth inhibition (TGI) was greater than 100 µM in assay [1]; greater than 100 µM in assay [2]; greater than 100 µM in assay [3]; greater than 100 µM in assay [10]; 11 µM in [4]; greater than 100 µM in assay [5]. Moreover, the TGI in [6] and in assay [7] was greater than 100 µM in each case.
Turning to `C=C1c2c(Cl)ccc(O)c2C(O)=C2C(=O)[C@]3(O)C(O)=C(C(N)=O)C(=O)[C@@H](N(C)C)[C@@H]3[C@@H](O)[C@H]12`, the GI50 in assay [1] was 1.17 µM; in assay [2], 1.37 µM; in assay [3], 1.51 µM; in [10], 1.22 µM; in assay [4], 0.669 µM; in assay [5] it was 1.49 µM. For the same molecule, the GI50 was 1.32 µM in assay [6], 1.19 µM in assay [7], 0.801 µM in assay [8] and 0.79 µM in [9]. The TGI is 5.22 µM in assay [1]; greater than 50 µM in assay [2]; 13 µM in [3]; 3.57 µM in assay [10]; 2.16 µM in assay [4]; 6.17 µM in assay [5]. The TGI in [6] came to 8.12 µM; in [7], 5 µM; in [8], 1.57 µM; in [9], 2.73 µM.
Consider `CC(Br)C(=O)Nc1ccc(C(=O)O)c(O)c1` (stereo not given), for which the TGI in [1], in assay [2], in assay [3], in assay [10], in assay [4] and in [5] was greater than 100 µM in each case. In addition, the TGI in [6], in assay [7], in assay [8] and in assay [9] was greater than 100 µM in each case.
For `Cc1cccc(C(C)(C)C)c1NC(=O)CC1Sc2ccccc2NC1=O` (stereo not given), the total growth inhibition concentration (TGI) in [1] is greater than 100 µM; in [2], greater than 100 µM; in [3], greater than 100 µM; in assay [10], 89.9 µM; in assay [4], 80 µM; in [5], greater than 100 µM. In addition, the concentration for total growth inhibition (TGI) in assay [6], in [7], in assay [8] and in [9] was greater than 100 µM throughout.
Take `NCCSCCc1ccccc1`: the total growth inhibition concentration (TGI) in assay [1], in [2], in assay [3], in [4], in assay [5] and in assay [6] was greater than 100 µM throughout. Besides, the TGI in assay [7], in assay [8] and in assay [9] was greater than 100 µM in each case.
Turning to `CO[C@H]1CC(c2ccc[nH]2)=N[C@]12O[C@@H](C)C[C@@H]1CCCCCCCc3ccc([nH]3)[C@H]12`, the GI50 in assay [1] is 1.25 µM; in assay [2], 1.22 µM; in assay [3] it was 0.975 µM; in [10] it was 1.24 µM; in assay [4], 0.8 µM; in [5], 0.933 µM. Besides, the GI50 in assay [6] was 1.17 µM; in assay [7], 1.39 µM; in assay [8] it was 0.527 µM; in assay [9] it was 0.659 µM. For the same molecule, the TGI turned out to be 6.53 µM in [1]; 4.76 µM in [2]; 7.3 µM in assay [3]; 4.97 µM in assay [10]; 4.81 µM in [4]; 6.15 µM in assay [5]. For the same molecule, the TGI in [6] is greater than 33.3 µM; in assay [7], 7.92 µM; in assay [8], 1.17 µM; in [9], 1.45 µM.
